Experimental data: paper PMC4645160, “Targeting kinases with anilinopyrimidines: discovery of N-phenyl-N’-[4-(pyrimidin-4-ylamino)phenyl]urea derivatives as selective inhibitors of class III receptor tyrosine kinase subfamily” (Scientific Reports, 2015)

Test system: A549 cells
Assay: MTT cytotoxicity assay, A549 lung cancer cells
Assay type: cell-based, human
Conditions: Homo sapiens, A549, 72 h, MTT test, 72 h of drug treatment; read-out: A549 IC50 (μM) ± SD
Method: (§1) Compounds active against at least one kinase among EGFR and class III RTKs were evaluated for their cytotoxic properties against two different human cancer cell lines, namely non small cells A549 lung cancer cells (sensitive to EGFR inhibitors)[46] and pancreatic BxPC3 adenocarcinoma (sensitive to both PDGFRβ and EGFR inhibitors)[47][48] cells. […] The results, expressed as IC50 values (μM) calculated from the dose-survival curves obtained after 72 h of drug treatment from the MTT test, are reported in Table 1.
(§2) All compounds, except derivative 27, were dissolved in DMSO just before the experiment, and a calculated amount of drug solution was added to the cell growth medium to a final solvent concentration of 0.5%, which had no discernible effect on cell killing. Compound 27 was dissolved in a 0.9% NaCl solution just before the experiment.
(§3) Human lung (A549), breast (MCF-7), pancreas (BxPC3), and colon (LoVo) carcinoma cell lines along with melanoma (A375) were obtained from American Type Culture Collection (ATCC, Rockville, MD). Human non-tumor embryonic kidney HEK293 cells were obtained from European Collection of Cell Cultures (ECACC, Salisbury, UK). Human cervical carcinoma A431cells were kindly provided by Prof. F. Zunino (Division of Experimental Oncology B, Istituto Nazionale dei Tumori, Milan, Italy). Human ovarian cancer 2008 cells were kindly provided by Prof. G. Marverti (Dept. of Biomedical Science of Modena University, Italy). Cell lines were maintained in the logarithmic phase at 37 °C in a 5% carbon dioxide atmosphere using the following culture media containing 10% fetal calf serum (Euroclone, Milan, Italy), antibiotics (50 units ∙ mL^−1 penicillin and 50 μg ∙ mL^−1 streptomycin) and 2 mM l-glutamine: i) RPMI-1640 medium (Euroclone) for MCF-7, A431, BxPC3 and 2008 cells; ii) F-12 HAM’S (Sigma Chemical Co.) for A549 and LoVo cells; iii) D-MEM medium (Euroclone) for HEK293 cells.
(§4) The growth inhibitory effect towards human cell lines was evaluated by means of MTT (tetrazolium salt reduction) assay. Briefly, 3–8 ∙ 10^3 cells/well, dependent upon the growth characteristics of the cell line, were seeded in 96-well microplates in growth medium (100 μL) and then incubated at 37 °C in a 5% carbon dioxide atmosphere. After 24 h, the medium was removed and replaced with a fresh one containing the test compound at the appropriate concentration. Triplicate cultures were established for each treatment. After 72 h, each well was treated with 10 μL of a 5 mg ∙ mL-1 MTT (3-(4,5-dimethylthiazol-2-yl)-2,5-diphenyltetrazolium bromide) saline solution, and after 5 h additional incubation, 100 μL of a sodium dodecylsulfate (SDS) solution in HCl 0.01 M were added. After overnight incubation, the inhibition of cell growth induced by the tested complexes was detected by measuring the absorbance of each well at 570 nm using a Bio-Rad 680 microplate reader (Bio-Rad, Hercules, CA). Mean absorbance for each drug dose was expressed as a percentage of the control untreated well absorbance and plotted vs drug concentration.

SMILES	IC50
Cc1cccc(Nc2cc(Nc3ccccc3)ncn2)c1 [Compound 1]	8.94 ± 2.18 µM
c1ccc(Nc2cc(Nc3cccc(-c4ccccc4)c3)ncn2)cc1 [Compound 2]	26.5 ± 3.85 µM
Oc1cccc(Nc2cc(Nc3ccccc3)ncn2)c1 [Compound 3]	28.2 ± 5.46 µM
Cc1ccc(Nc2cc(Nc3ccccc3)ncn2)cc1 [Compound 4]	14.2 ± 2.75 µM
Oc1ccc(Nc2cc(Nc3ccccc3)ncn2)cc1 [Compound 5]	16.3 ± 4.24 µM
Nc1ccc(Nc2cc(Nc3ccccc3)ncn2)cc1 [Compound 6]	34 ± 4.98 µM
Cc1cccc(Nc2cc(Nc3cccc(C)c3)ncn2)c1 [Compound 8]	> 50 µM

Same assay, conditions: ratio between IC50 of sunitinib and IC50 of tested compound, A549

SMILES	Potency relative to SU (A549)
Cc1cccc(Nc2cc(Nc3ccccc3)ncn2)c1 [Compound 1]	0.70
c1ccc(Nc2cc(Nc3cccc(-c4ccccc4)c3)ncn2)cc1 [Compound 2]	0.23
Oc1cccc(Nc2cc(Nc3ccccc3)ncn2)c1 [Compound 3]	0.22
Cc1ccc(Nc2cc(Nc3ccccc3)ncn2)cc1 [Compound 4]	0.44
Oc1ccc(Nc2cc(Nc3ccccc3)ncn2)cc1 [Compound 5]	0.38
Nc1ccc(Nc2cc(Nc3ccccc3)ncn2)cc1 [Compound 6]	0.18
Cc1cccc(Nc2cc(Nc3cccc(C)c3)ncn2)c1 [Compound 8]	<0.12

Test system: BxPC3 cells
Assay: MTT cytotoxicity assay, BxPC3 pancreatic adenocarcinoma cells
Assay type: cell-based, human
Conditions: Homo sapiens, BXPC-3; MTT test, 72 h of drug treatment; read-out: BxPC3 IC50 (μM) ± SD
Method: as §1, §2, §3, §4

SMILES	IC50
Cc1cccc(Nc2cc(Nc3ccccc3)ncn2)c1 [Compound 1]	6.43 ± 1.78 µM
c1ccc(Nc2cc(Nc3cccc(-c4ccccc4)c3)ncn2)cc1 [Compound 2]	17.9 ± 2.46 µM
Oc1cccc(Nc2cc(Nc3ccccc3)ncn2)c1 [Compound 3]	8.19 ± 2.18 µM
Cc1ccc(Nc2cc(Nc3ccccc3)ncn2)cc1 [Compound 4]	23.2 ± 4.29 µM
Oc1ccc(Nc2cc(Nc3ccccc3)ncn2)cc1 [Compound 5]	6.51 ± 1.07 µM
Nc1ccc(Nc2cc(Nc3ccccc3)ncn2)cc1 [Compound 6]	16.1 ± 4.85 µM
Cc1cccc(Nc2cc(Nc3cccc(C)c3)ncn2)c1 [Compound 8]	> 50 µM

Same assay, conditions: ratio between IC50 of sunitinib and IC50 of tested compound, BxPC3

SMILES	Potency relative to SU (BxPC3)
Cc1cccc(Nc2cc(Nc3ccccc3)ncn2)c1 [Compound 1]	0.79
c1ccc(Nc2cc(Nc3cccc(-c4ccccc4)c3)ncn2)cc1 [Compound 2]	0.28
Oc1cccc(Nc2cc(Nc3ccccc3)ncn2)c1 [Compound 3]	0.62
Cc1ccc(Nc2cc(Nc3ccccc3)ncn2)cc1 [Compound 4]	0.22
Oc1ccc(Nc2cc(Nc3ccccc3)ncn2)cc1 [Compound 5]	0.78
Nc1ccc(Nc2cc(Nc3ccccc3)ncn2)cc1 [Compound 6]	0.31
Cc1cccc(Nc2cc(Nc3cccc(C)c3)ncn2)c1 [Compound 8]	<0.10

Test system: panel of 48 kinases
Assay: KinomeScan primary screening (POC) at 10 μM
Assay type: binding, human
Conditions: POC values
Description: Synthesized compounds were screened against a panel of 48 kinases selected within the ScanEDGE subset of DiscoverX (http://www.discoverx.com/services/drug-discovery-development-services/kinase-profiling/kinomescan/scanedge). The ScanEDGE includes 97 kinases and is an economical approach to assess compounds selectivity throughout the human kinome. All the wt-TKs along with some relevant mutants of Abl1 (T315I) and of EGFR (L858R and L858R/T790M) were chosen. The remaining 18 targets (3 Tyrosine Kinases-Like, TKLs; 15 Serine-Threonine Kinases, STKs) were selected among the remaining kinases in the ScanEDGE subset on the basis of their well established role in cancer (see Fig. S2 for a graphical representation of the selected kinases with reference to the kinome tree. Some references highlighting the role of each kinase in cancer are also reported in Table S3).
The compounds were evaluated using the KinomeScan™ platform (http://www.discoverx.com/services/drug-discovery-development-services/kinase-profiling/kinomescan), that measures the ability of the test compound to disrupt the complex between a high affinity ATP-mimic probe immobilized on a solid support and the kinase of interest. The KinomeScan is a very helpful technology for the fast and reliable screening of a number of compounds against a wide and customizable panel of kinases. Besides, it is not based on the use of hazardous radioactive ^32P-ATP and has a very low rate of false positive (<1%)[44]. The screening platform outputs a “Percent of Control” (POC) value, statistically correlated to the dissociation constant (Kd) value (http://www.discoverx.com/tools-resources/leadhunter-study-reports-data-analysis), for each pair of kinase/ligand. The POC is calculated as reported in equation (1):
Where: test compound signal = amount of kinase still binding the probe after treatment with test compound; negative control signal = amount of kinase still binding the probe after treatment with DMSO (100% control); positive control signal = amount of kinase still binding the probe after treatment with control compound (0% control).
The compounds were tested at high concentration (10 μM), in order to highlight not only the main target but also the off-targets. The results of the preliminary screening are reported as heat map (Fig. 4; see also Table S4 for all the measured values), in which the compounds are grouped on the basis of the 6 or 5 substituent at the pyrimidine ring.

SMILES	Selectivity profile (kinases targeted) in primary screening
Cc1cccc(Nc2cc(Nc3ccccc3)ncn2)c1 [Compound 1]	EGFR selective
Cc1ccc(Nc2cc(Nc3ccccc3)ncn2)cc1 [Compound 4]	EGFR selective
Oc1ccc(Nc2cc(Nc3ccccc3)ncn2)cc1 [Compound 5]	EGFR; class III RTK; AXL

Test system: not given
Assay: not given
Conditions: not given

SMILES	melting point
Cc1cccc(Nc2cc(Nc3ccccc3)ncn2)c1 [Compound 1]	254 °C
c1ccc(Nc2cc(Nc3cccc(-c4ccccc4)c3)ncn2)cc1 [Compound 2]	267 °C
Oc1cccc(Nc2cc(Nc3ccccc3)ncn2)c1 [Compound 3]	253 °C

Second part, the compound after the results:

melting point	SMILES
265 °C	Cc1ccc(Nc2cc(Nc3ccccc3)ncn2)cc1 [Compound 4]
286 °C	Oc1ccc(Nc2cc(Nc3ccccc3)ncn2)cc1 [Compound 5]
